Results: the NIST ThermoML archive (doi:10.1016/j.jct.2012.01.008)
± gives the expanded uncertainty stated by the source.

Conditions: Liquid, Vibrating tube method

**Q.** With `CC(=O)c1ccccc1` [acetophenone] as the molecule, how does the mass density (298.15 K, 100 kPa) read?
**A.** 1023.4 ± 0.3 kg/m3

**Q.** And the mass density (298.15 K, 10000 kPa)?
**A.** 1029 ± 0.3 kg/m3

**Q.** What about the mass density (298.15 K, 15000 kPa) of the same molecule?
**A.** 1031.7 ± 0.3 kg/m3

**Q.** What about the mass density (298.15 K, 20000 kPa) of the same molecule?
**A.** 1034.3 ± 0.3 kg/m3

**Q.** What about the mass density (298.15 K, 25000 kPa) of the same molecule?
**A.** 1036.8 ± 0.3 kg/m3

**Q.** And the mass density (298.15 K, 30000 kPa)?
**A.** 1039.3 ± 0.4 kg/m3

**Q.** What about the mass density (298.15 K, 35000 kPa) of the same molecule?
**A.** 1041.8 ± 0.4 kg/m3

**Q.** And the mass density (298.15 K, 40000 kPa)?
**A.** 1044.4 ± 0.4 kg/m3

**Q.** What about the mass density (298.15 K, 45000 kPa) of the same molecule?
**A.** 1046.7 ± 0.4 kg/m3

**Q.** And the mass density (298.15 K, 50000 kPa)?
**A.** 1049 ± 0.4 kg/m3

**Q.** And the mass density (318.15 K, 100 kPa)?
**A.** 1005.9 ± 0.3 kg/m3

**Q.** What about the mass density (318.15 K, 10000 kPa) of the same molecule?
**A.** 1012.2 ± 0.3 kg/m3

**Q.** What about the mass density (318.15 K, 15000 kPa) of the same molecule?
**A.** 1015.2 ± 0.3 kg/m3

**Q.** And the mass density (318.15 K, 20000 kPa)?
**A.** 1018.1 ± 0.3 kg/m3

**Q.** What about the mass density (318.15 K, 25000 kPa) of the same molecule?
**A.** 1020.9 ± 0.3 kg/m3

**Q.** What about the mass density (318.15 K, 30000 kPa) of the same molecule?
**A.** 1023.6 ± 0.3 kg/m3

**Q.** And the mass density (318.15 K, 35000 kPa)?
**A.** 1026.4 ± 0.3 kg/m3

**Q.** And the mass density (318.15 K, 40000 kPa)?
**A.** 1028.8 ± 0.4 kg/m3

**Q.** And the mass density (318.15 K, 45000 kPa)?
**A.** 1031.5 ± 0.4 kg/m3

**Q.** What about the mass density (318.15 K, 50000 kPa) of the same molecule?
**A.** 1034 ± 0.4 kg/m3

**Q.** What about the mass density (348.15 K, 100 kPa) of the same molecule?
**A.** 979.6 ± 0.3 kg/m3

**Q.** What about the mass density (348.15 K, 10000 kPa) of the same molecule?
**A.** 987.1 ± 0.3 kg/m3

**Q.** What about the mass density (348.15 K, 15000 kPa) of the same molecule?
**A.** 990.5 ± 0.3 kg/m3

**Q.** And the mass density (348.15 K, 20000 kPa)?
**A.** 993.6 ± 0.3 kg/m3

**Q.** What about the mass density (348.15 K, 25000 kPa) of the same molecule?
**A.** 996.9 ± 0.3 kg/m3

**Q.** What about the mass density (348.15 K, 30000 kPa) of the same molecule?
**A.** 1000.1 ± 0.3 kg/m3

**Q.** What about the mass density (348.15 K, 35000 kPa) of the same molecule?
**A.** 1003.1 ± 0.3 kg/m3

**Q.** And the mass density (348.15 K, 40000 kPa)?
**A.** 1006.1 ± 0.3 kg/m3

**Q.** And the mass density (348.15 K, 45000 kPa)?
**A.** 1009 ± 0.3 kg/m3

**Q.** And the mass density (348.15 K, 50000 kPa)?
**A.** 1011.7 ± 0.3 kg/m3

**Q.** Which mass density (298.15 K, 100 kPa) does the source give for `COc1ccccc1` [anisole] here?
**A.** 989.2 ± 0.3 kg/m3

**Q.** And the mass density (298.15 K, 10000 kPa)?
**A.** 995.6 ± 0.3 kg/m3

**Q.** What about the mass density (298.15 K, 15000 kPa) of the same molecule?
**A.** 998.5 ± 0.3 kg/m3

**Q.** And the mass density (298.15 K, 20000 kPa)?
**A.** 1001.4 ± 0.3 kg/m3

**Q.** And the mass density (298.15 K, 25000 kPa)?
**A.** 1004.1 ± 0.3 kg/m3

**Q.** And the mass density (298.15 K, 30000 kPa)?
**A.** 1006.9 ± 0.3 kg/m3

**Q.** What about the mass density (298.15 K, 35000 kPa) of the same molecule?
**A.** 1009.7 ± 0.3 kg/m3

**Q.** And the mass density (298.15 K, 40000 kPa)?
**A.** 1012.5 ± 0.3 kg/m3

**Q.** And the mass density (298.15 K, 45000 kPa)?
**A.** 1015.2 ± 0.3 kg/m3

**Q.** What about the mass density (298.15 K, 50000 kPa) of the same molecule?
**A.** 1017.5 ± 0.3 kg/m3

**Q.** And the mass density (318.15 K, 100 kPa)?
**A.** 969.9 ± 0.3 kg/m3

**Q.** What about the mass density (318.15 K, 10000 kPa) of the same molecule?
**A.** 977.3 ± 0.3 kg/m3

**Q.** What about the mass density (318.15 K, 15000 kPa) of the same molecule?
**A.** 980.4 ± 0.3 kg/m3

**Q.** And the mass density (318.15 K, 20000 kPa)?
**A.** 983.6 ± 0.3 kg/m3

**Q.** What about the mass density (318.15 K, 25000 kPa) of the same molecule?
**A.** 986.9 ± 0.3 kg/m3

**Q.** What about the mass density (318.15 K, 30000 kPa) of the same molecule?
**A.** 989.8 ± 0.3 kg/m3

**Q.** What about the mass density (318.15 K, 35000 kPa) of the same molecule?
**A.** 992.9 ± 0.3 kg/m3

**Q.** And the mass density (318.15 K, 40000 kPa)?
**A.** 995.7 ± 0.3 kg/m3

**Q.** What about the mass density (318.15 K, 45000 kPa) of the same molecule?
**A.** 998.6 ± 0.3 kg/m3

**Q.** What about the mass density (318.15 K, 50000 kPa) of the same molecule?
**A.** 1001.5 ± 0.3 kg/m3

**Q.** And the mass density (348.15 K, 100 kPa)?
**A.** 941.3 ± 0.3 kg/m3

**Q.** And the mass density (348.15 K, 10000 kPa)?
**A.** 949.8 ± 0.3 kg/m3

**Q.** What about the mass density (348.15 K, 15000 kPa) of the same molecule?
**A.** 953.5 ± 0.3 kg/m3

**Q.** What about the mass density (348.15 K, 20000 kPa) of the same molecule?
**A.** 957.3 ± 0.3 kg/m3

**Q.** What about the mass density (348.15 K, 25000 kPa) of the same molecule?
**A.** 961.1 ± 0.3 kg/m3

**Q.** What about the mass density (348.15 K, 30000 kPa) of the same molecule?
**A.** 964.5 ± 0.3 kg/m3

**Q.** What about the mass density (348.15 K, 35000 kPa) of the same molecule?
**A.** 967.9 ± 0.3 kg/m3

**Q.** What about the mass density (348.15 K, 40000 kPa) of the same molecule?
**A.** 971 ± 0.3 kg/m3

**Q.** And the mass density (348.15 K, 45000 kPa)?
**A.** 974.5 ± 0.3 kg/m3

**Q.** And the mass density (348.15 K, 50000 kPa)?
**A.** 977.8 ± 0.3 kg/m3

**Q.** With `CCC[N+]1(C)CCCCC1.O=S(=O)([N-]S(=O)(=O)C(F)(F)F)C(F)(F)F` as the molecule, how does the mass density (298.15 K, 100 kPa) read?
**A.** 1408.9 ± 0.6 kg/m3

**Q.** And the mass density (298.15 K, 10000 kPa)?
**A.** 1415.4 ± 0.8 kg/m3

**Q.** What about the mass density (298.15 K, 15000 kPa) of the same molecule?
**A.** 1418.7 ± 0.8 kg/m3

**Q.** And the mass density (298.15 K, 20000 kPa)?
**A.** 1421.9 ± 0.9 kg/m3

**Q.** What about the mass density (298.15 K, 25000 kPa) of the same molecule?
**A.** 1424.8 ± 1 kg/m3

**Q.** What about the mass density (298.15 K, 30000 kPa) of the same molecule?
**A.** 1427.7 ± 1.1 kg/m3

**Q.** And the mass density (298.15 K, 35000 kPa)?
**A.** 1430.4 ± 1.2 kg/m3

**Q.** What about the mass density (298.15 K, 40000 kPa) of the same molecule?
**A.** 1433.2 ± 1.3 kg/m3

**Q.** And the mass density (298.15 K, 45000 kPa)?
**A.** 1436.1 ± 1.4 kg/m3

**Q.** And the mass density (298.15 K, 50000 kPa)?
**A.** 1438.8 ± 1.5 kg/m3

**Q.** What about the mass density (318.15 K, 100 kPa) of the same molecule?
**A.** 1392.1 ± 0.6 kg/m3

**Q.** And the mass density (318.15 K, 10000 kPa)?
**A.** 1398.9 ± 0.7 kg/m3

**Q.** What about the mass density (318.15 K, 15000 kPa) of the same molecule?
**A.** 1402.4 ± 0.8 kg/m3

**Q.** What about the mass density (318.15 K, 20000 kPa) of the same molecule?
**A.** 1405.4 ± 0.9 kg/m3

**Q.** What about the mass density (318.15 K, 25000 kPa) of the same molecule?
**A.** 1408.6 ± 1 kg/m3

**Q.** What about the mass density (318.15 K, 30000 kPa) of the same molecule?
**A.** 1411.8 ± 1.1 kg/m3

**Q.** And the mass density (318.15 K, 35000 kPa)?
**A.** 1414.7 ± 1.2 kg/m3

**Q.** What about the mass density (318.15 K, 40000 kPa) of the same molecule?
**A.** 1417.6 ± 1.2 kg/m3

**Q.** And the mass density (318.15 K, 45000 kPa)?
**A.** 1420.5 ± 1.3 kg/m3

**Q.** What about the mass density (318.15 K, 50000 kPa) of the same molecule?
**A.** 1423.3 ± 1.4 kg/m3

**Q.** What about the mass density (348.15 K, 100 kPa) of the same molecule?
**A.** 1366.3 ± 0.6 kg/m3

**Q.** And the mass density (348.15 K, 10000 kPa)?
**A.** 1373.5 ± 0.7 kg/m3

**Q.** And the mass density (348.15 K, 15000 kPa)?
**A.** 1377.2 ± 0.8 kg/m3

**Q.** What about the mass density (348.15 K, 20000 kPa) of the same molecule?
**A.** 1380.8 ± 0.9 kg/m3

**Q.** What about the mass density (348.15 K, 25000 kPa) of the same molecule?
**A.** 1384.1 ± 0.9 kg/m3

**Q.** What about the mass density (348.15 K, 30000 kPa) of the same molecule?
**A.** 1387.6 ± 1 kg/m3

**Q.** And the mass density (348.15 K, 35000 kPa)?
**A.** 1390.7 ± 1.1 kg/m3

**Q.** What about the mass density (348.15 K, 40000 kPa) of the same molecule?
**A.** 1393.8 ± 1.2 kg/m3

**Q.** And the mass density (348.15 K, 45000 kPa)?
**A.** 1397 ± 1.3 kg/m3

**Q.** And the mass density (348.15 K, 50000 kPa)?
**A.** 1399.9 ± 1.4 kg/m3
